Where two headings read alike, the source gives them in different places. Some results are limits rather than exact numbers.

One assay relates to α-blocking activity. Description: Anti-epinephrine lethal activity in mouse. The assay is classed as in vivo. To be noted: read-out: Anti-epinephrine activity (ED50 mg/kg) (B).
The test system of the next assay is dopaminergic receptor. Description: Anti-apomorphine activity in mouse. To be noted: for ED50: Mus musculus, po, 1 h, read-out: Anti-apomorphine activity (ED50 mg/kg) (A); for (B)/(A): ratio of anti-epinephrine ED50 (B) to anti-apomorphine ED50 (A).
Setting [1] is: mouse, oral, 1 hour before lethal dose (1.5 mg/kg) of epinephrine intravenously, survival at 4 hours.

For `O=C1CCc2ccc(OCCCCN3CCN(c4cccc(Cl)c4Cl)CC3)cc2N1` [Test compound 1, 7-{4-[4-(2,3-dichlorophenyl)-1-piperazinyl]butoxy}-3,4-dihydrocarbostyril], the ED50 with α-blocking activity (Mus musculus, po, 4 h) is > 128 mg/kg. In addition, in the assay with dopaminergic receptor, the ED50 was found to be 0.18 mg/kg and the “(B)/(A)” value is given as > 711.

On to `Cc1c(N2CCN(CCCCOc3ccc4c(c3)NC(=O)CC4)CC2)cccc1[N+](=O)[O-]` [Test compound 2], for which the results for the ED50 in the assay on α-blocking activity (setting [1]) and in the assay on dopaminergic receptor were > 128 mg/kg and 0.3 mg/kg, respectively. For the same compound, the “(B)/(A)” value in the assay with dopaminergic receptor was > 426.7.

As for `Cc1cccc(N2CCN(CCCCOc3ccc4c(c3)NC(=O)CC4)CC2)c1Cl` [Test compound 3], in the assay with α-blocking activity (setting [1]), the ED50 is > 64 mg/kg. For the same compound, in the assay with dopaminergic receptor, the ED50 is 0.4 mg/kg and the “(B)/(A)” value is on record as > 160.

For the compound `Cc1cccc(N2CCN(CCCCOc3ccc4c(c3)NC(=O)CC4)CC2)c1Br` [Test compound 4], the ED50 in the assay on α-blocking activity (setting [1]) is > 64 mg/kg. Moreover, in the assay with dopaminergic receptor, the ED50 was 0.4 mg/kg and the “(B)/(A)” value is > 160.

As for `O=C1CCc2ccc(OCCCCN3CCN(c4cc(Cl)cc(Cl)c4)CC3)cc2N1` [Test compound 5], the ED50 in the assay with α-blocking activity (setting [1]) is > 128 mg/kg; in the assay on dopaminergic receptor, 0.5 mg/kg. The “(B)/(A)” value with dopaminergic receptor is > 256.

In the case of `O=C1CCc2ccc(OCCCCN3CCN(c4cc(Cl)cc(Cl)c4Cl)CC3)cc2N1` [Test compound 7], in the assay with α-blocking activity (setting [1]), the ED50 is > 128 mg/kg. Further, in the assay with dopaminergic receptor, the ED50 is 0.4 mg/kg and the “(B)/(A)” value was > 320.

As to `COc1ccccc1N1CCN(CCCCOc2ccc3c(c2)NC(=O)CC3)CC1` [Test compound 8], the ED50 in the assay on α-blocking activity (setting [1]) came out at 2.5 mg/kg. Also, in the assay with dopaminergic receptor, the ED50 was determined as 0.2 mg/kg and the “(B)/(A)” value worked out at 12.5.

`O=C1CCc2ccc(OCCCCN3CCN(c4cccc(Br)c4Br)CC3)cc2N1` [Test compound 9]: in the assay on α-blocking activity (setting [1]), the ED50 was > 256 mg/kg. Further, in the assay with dopaminergic receptor, the ED50 was 0.6 mg/kg and the “(B)/(A)” value is recorded as > 426.7.

Consider `O=c1ccc2ccc(OCCCCN3CCN(c4cccc(Cl)c4Cl)CC3)cc2[nH]1` [Test compound 10], for which the ED50 with α-blocking activity (setting [1]) was > 128 mg/kg; in the assay with dopaminergic receptor, 0.36 mg/kg. In the assay on dopaminergic receptor, the “(B)/(A)” value is given as > 355.

Regarding `CCOc1ccccc1N1CCN(CCCCOc2ccc3ccc(=O)[nH]c3c2)CC1` [Test compound 11], in the assay with α-blocking activity (setting [1]), the ED50 is 3.8 mg/kg. Besides, in the assay with dopaminergic receptor, the ED50 was found to be 0.12 mg/kg and the “(B)/(A)” value is listed as 31.6.

These data come from US5006528A, “Carbostyril derivatives” (Otsuka Pharmaceutical Co., Ltd., priority 1988, dated 1991).
